Laboratory results reported in US9492471B2, “Methods of treating a disease or disorder associated with Bruton'S Tyrosine Kinase” (Celgene Avilomics Research, Inc., priority 2013, dated 2016).
Where two headings read alike, the source gives them in different places.

What was measured:
Assay in all cases: HotSpot kinase profiling
Format in all cases: biochemical
TIE2/TEK = biological target: T1, TIE2/TEK (Homo sapiens, UniProt Q02763)
T1 construct: purchased Reaction Biology Corp
Summary of the method: (§1)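 P81 filtration radiometric readout; 2 h incubation at room temperature; 0.1% phosphoric acid wash; DMSO negative control; % inhibition, mean of replicate runs.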

ERBB4/HER4 = biological target: T2, ERBB4/HER4 (Homo sapiens, UniProt Q15303)
T2 construct: purchased Reaction Biology Corp
T2 sequence (Q15303 26-1308): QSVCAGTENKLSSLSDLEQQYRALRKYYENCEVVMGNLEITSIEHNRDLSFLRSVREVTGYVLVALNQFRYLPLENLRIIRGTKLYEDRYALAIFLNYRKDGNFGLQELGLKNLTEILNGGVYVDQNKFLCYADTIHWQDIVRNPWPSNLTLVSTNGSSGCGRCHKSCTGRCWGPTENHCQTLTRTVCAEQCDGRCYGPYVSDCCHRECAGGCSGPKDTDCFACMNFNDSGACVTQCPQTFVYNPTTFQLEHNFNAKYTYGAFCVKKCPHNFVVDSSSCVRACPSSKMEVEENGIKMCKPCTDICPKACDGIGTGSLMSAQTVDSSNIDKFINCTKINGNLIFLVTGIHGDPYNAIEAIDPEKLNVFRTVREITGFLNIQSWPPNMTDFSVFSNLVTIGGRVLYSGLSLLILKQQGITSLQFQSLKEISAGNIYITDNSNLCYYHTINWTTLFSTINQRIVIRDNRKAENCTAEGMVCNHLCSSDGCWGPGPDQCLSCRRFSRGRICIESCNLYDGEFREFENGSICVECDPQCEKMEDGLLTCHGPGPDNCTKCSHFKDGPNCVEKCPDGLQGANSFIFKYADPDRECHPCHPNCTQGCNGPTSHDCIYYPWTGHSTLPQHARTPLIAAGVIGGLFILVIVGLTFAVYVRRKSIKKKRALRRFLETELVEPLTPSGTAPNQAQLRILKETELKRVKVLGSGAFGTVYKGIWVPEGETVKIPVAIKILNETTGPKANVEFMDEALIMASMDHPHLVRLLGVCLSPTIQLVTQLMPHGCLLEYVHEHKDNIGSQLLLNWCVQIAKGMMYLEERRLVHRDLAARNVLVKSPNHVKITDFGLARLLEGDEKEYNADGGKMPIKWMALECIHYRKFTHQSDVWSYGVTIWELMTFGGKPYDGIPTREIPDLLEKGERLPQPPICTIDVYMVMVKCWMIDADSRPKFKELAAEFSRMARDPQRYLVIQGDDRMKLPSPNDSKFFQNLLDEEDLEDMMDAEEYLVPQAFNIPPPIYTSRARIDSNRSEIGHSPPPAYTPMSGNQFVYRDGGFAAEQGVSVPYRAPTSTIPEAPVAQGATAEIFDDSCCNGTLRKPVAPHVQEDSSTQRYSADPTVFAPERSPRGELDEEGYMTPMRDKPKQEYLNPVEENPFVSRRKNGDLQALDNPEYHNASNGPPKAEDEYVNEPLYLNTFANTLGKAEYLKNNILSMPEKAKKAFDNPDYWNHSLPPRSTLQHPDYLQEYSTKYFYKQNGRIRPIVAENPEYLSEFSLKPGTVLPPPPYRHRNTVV
Summary of the method: as §1

ABL2/ARG = biological target: T3, ABL2/ARG (Homo sapiens, UniProt P42684)
T3 construct: purchased Reaction Biology Corp
Summary of the method: as §1

BLK = biological target: T4, BLK (Homo sapiens, UniProt P51451)
T4 construct: purchased Reaction Biology Corp
Summary of the method: as §1

MSK1/RPS6KA5 = biological target: T5, MSK1/RPS6KA5 (Homo sapiens, UniProt O75582)
T5 construct: purchased Reaction Biology Corp
T5 sequence (O75582 whole entry): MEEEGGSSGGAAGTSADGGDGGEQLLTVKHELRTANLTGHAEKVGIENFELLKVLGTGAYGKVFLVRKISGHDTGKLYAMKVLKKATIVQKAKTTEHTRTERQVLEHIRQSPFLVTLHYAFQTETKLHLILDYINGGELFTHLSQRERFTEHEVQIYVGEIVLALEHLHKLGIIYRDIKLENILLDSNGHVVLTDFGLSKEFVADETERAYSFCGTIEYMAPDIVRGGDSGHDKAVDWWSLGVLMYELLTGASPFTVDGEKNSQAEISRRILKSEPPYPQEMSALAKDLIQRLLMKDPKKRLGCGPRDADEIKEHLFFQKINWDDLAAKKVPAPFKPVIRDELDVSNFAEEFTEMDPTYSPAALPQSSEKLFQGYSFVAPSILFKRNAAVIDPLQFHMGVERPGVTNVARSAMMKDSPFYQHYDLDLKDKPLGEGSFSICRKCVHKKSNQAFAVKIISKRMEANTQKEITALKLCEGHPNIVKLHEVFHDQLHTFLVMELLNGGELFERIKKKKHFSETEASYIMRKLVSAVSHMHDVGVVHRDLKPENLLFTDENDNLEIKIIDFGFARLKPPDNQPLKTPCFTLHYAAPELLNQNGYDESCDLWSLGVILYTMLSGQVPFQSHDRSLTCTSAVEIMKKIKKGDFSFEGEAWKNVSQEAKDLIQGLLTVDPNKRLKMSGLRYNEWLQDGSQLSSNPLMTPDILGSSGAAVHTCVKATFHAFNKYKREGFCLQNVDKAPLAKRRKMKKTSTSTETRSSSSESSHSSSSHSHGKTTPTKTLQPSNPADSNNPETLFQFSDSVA
Summary of the method: as §1

FGFR3 = biological target: T6, FGFR3 (Homo sapiens, UniProt P22607)
T6 construct: purchased Reaction Biology Corp
Summary of the method: as §1

PKD2/PRKD2 = biological target: T7, PKD2/PRKD2 (Homo sapiens, UniProt Q9BZL6)
T7 construct: purchased Reaction Biology Corp
T7 sequence (Q9BZL6 1-878): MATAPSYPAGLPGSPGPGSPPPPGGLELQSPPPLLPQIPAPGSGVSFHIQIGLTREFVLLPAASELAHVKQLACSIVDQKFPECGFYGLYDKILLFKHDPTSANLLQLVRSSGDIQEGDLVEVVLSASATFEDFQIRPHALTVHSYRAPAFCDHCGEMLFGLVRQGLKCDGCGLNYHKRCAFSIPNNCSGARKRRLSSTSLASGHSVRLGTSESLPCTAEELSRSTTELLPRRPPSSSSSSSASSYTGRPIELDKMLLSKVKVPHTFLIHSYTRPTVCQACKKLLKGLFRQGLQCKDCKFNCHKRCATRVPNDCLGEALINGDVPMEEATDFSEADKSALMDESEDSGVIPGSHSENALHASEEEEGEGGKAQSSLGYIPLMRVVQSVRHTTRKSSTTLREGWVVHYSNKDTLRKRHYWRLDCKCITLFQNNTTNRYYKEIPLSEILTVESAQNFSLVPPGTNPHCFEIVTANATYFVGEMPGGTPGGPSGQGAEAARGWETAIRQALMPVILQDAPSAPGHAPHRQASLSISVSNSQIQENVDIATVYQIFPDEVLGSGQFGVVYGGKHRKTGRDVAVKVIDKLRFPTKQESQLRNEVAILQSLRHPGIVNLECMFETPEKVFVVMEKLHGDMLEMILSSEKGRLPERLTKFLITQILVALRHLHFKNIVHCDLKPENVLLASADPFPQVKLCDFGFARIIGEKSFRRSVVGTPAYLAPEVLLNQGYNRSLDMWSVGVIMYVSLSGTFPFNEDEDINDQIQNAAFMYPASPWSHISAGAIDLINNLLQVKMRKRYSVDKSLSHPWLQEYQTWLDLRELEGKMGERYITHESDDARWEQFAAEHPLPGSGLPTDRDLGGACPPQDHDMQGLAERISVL
Summary of the method: as §1

PKN2/PRK2 = biological target: T8, PKN2/PRK2 (Homo sapiens, UniProt Q16513)
T8 construct: purchased Reaction Biology Corp
T8 sequence (Q16513 whole entry): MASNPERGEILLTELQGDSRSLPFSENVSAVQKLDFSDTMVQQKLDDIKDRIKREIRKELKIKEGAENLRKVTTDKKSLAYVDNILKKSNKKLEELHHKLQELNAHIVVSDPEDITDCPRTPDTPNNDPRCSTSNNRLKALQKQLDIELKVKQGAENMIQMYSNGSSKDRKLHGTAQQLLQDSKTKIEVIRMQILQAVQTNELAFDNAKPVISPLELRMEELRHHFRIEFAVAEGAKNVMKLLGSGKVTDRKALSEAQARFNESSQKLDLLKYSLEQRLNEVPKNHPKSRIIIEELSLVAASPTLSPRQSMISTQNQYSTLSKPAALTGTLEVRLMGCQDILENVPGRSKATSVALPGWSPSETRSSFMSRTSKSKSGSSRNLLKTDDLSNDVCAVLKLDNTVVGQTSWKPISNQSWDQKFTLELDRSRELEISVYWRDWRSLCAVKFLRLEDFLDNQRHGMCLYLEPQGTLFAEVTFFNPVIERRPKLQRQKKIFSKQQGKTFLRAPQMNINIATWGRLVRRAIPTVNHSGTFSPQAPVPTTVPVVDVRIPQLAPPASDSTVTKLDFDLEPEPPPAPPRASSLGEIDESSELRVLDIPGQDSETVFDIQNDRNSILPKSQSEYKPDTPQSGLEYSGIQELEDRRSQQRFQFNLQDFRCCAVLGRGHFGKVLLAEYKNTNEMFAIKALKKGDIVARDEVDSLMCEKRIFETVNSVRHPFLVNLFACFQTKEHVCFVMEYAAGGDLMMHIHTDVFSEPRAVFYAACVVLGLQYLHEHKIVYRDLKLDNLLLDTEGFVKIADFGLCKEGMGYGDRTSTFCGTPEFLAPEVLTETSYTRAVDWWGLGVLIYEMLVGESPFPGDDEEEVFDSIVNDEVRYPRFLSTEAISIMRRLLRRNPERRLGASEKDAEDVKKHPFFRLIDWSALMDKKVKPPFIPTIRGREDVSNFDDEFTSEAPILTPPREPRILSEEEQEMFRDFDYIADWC
Summary of the method: as §1

GSK3b = biological target: T9, GSK3b (Homo sapiens, UniProt P49841)
T9 construct: purchased Reaction Biology Corp
T9 sequence (P49841 whole entry): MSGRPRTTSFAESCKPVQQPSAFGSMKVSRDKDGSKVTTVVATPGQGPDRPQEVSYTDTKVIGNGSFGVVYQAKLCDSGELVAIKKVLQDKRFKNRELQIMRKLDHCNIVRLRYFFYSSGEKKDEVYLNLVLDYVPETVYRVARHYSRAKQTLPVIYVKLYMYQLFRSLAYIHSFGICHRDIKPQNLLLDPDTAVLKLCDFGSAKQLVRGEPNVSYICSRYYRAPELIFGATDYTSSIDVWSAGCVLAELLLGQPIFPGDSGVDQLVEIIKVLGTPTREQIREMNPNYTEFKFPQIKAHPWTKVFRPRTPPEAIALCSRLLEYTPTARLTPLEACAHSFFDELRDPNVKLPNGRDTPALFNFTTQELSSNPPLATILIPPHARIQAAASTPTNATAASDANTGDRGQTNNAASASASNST
Summary of the method: as §1

DYRK2 = biological target: T10, DYRK2 (Homo sapiens, UniProt Q92630)
T10 construct: purchased Reaction Biology Corp
T10 sequence (Q92630 1-601): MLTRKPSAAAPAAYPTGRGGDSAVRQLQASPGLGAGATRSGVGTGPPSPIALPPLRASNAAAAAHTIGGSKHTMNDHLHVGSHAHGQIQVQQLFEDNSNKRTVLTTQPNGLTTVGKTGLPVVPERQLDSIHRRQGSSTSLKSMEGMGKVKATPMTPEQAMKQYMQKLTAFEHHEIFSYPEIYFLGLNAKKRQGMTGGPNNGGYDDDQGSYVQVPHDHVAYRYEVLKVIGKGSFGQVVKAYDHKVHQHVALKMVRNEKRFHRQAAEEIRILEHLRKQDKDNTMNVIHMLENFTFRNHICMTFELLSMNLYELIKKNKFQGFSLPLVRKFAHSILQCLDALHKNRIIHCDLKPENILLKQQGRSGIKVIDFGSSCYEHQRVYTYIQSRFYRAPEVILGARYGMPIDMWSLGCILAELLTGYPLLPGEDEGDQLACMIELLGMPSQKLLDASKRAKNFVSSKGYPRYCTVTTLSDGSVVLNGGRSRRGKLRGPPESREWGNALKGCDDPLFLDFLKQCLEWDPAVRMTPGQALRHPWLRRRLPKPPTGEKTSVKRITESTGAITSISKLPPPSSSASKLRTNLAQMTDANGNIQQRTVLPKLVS
Summary of the method: as §1

CAMK1g = biological target: T11, CAMK1g (Homo sapiens, UniProt Q96NX5)
T11 construct: purchased Reaction Biology Corp
T11 sequence (Q96NX5 whole entry): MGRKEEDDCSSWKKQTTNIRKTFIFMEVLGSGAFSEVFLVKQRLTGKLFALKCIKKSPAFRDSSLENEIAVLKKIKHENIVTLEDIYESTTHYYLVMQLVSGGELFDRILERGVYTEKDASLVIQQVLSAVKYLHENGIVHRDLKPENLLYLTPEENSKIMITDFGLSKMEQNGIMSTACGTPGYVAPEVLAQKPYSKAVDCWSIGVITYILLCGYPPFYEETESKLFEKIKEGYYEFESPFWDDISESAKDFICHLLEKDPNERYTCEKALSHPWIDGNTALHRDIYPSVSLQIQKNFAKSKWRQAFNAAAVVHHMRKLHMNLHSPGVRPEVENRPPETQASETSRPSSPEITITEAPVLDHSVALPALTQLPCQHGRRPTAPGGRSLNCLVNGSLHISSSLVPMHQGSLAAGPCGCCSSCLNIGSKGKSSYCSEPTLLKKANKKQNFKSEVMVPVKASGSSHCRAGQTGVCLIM
Summary of the method: as §1

[1] = read-out: % Enzyme Activity (relative to DMSO controls) Run 1
[2] = read-out: % Enzyme Activity (relative to DMSO controls) Run 2

T1 sequence (Q02763 23-1124): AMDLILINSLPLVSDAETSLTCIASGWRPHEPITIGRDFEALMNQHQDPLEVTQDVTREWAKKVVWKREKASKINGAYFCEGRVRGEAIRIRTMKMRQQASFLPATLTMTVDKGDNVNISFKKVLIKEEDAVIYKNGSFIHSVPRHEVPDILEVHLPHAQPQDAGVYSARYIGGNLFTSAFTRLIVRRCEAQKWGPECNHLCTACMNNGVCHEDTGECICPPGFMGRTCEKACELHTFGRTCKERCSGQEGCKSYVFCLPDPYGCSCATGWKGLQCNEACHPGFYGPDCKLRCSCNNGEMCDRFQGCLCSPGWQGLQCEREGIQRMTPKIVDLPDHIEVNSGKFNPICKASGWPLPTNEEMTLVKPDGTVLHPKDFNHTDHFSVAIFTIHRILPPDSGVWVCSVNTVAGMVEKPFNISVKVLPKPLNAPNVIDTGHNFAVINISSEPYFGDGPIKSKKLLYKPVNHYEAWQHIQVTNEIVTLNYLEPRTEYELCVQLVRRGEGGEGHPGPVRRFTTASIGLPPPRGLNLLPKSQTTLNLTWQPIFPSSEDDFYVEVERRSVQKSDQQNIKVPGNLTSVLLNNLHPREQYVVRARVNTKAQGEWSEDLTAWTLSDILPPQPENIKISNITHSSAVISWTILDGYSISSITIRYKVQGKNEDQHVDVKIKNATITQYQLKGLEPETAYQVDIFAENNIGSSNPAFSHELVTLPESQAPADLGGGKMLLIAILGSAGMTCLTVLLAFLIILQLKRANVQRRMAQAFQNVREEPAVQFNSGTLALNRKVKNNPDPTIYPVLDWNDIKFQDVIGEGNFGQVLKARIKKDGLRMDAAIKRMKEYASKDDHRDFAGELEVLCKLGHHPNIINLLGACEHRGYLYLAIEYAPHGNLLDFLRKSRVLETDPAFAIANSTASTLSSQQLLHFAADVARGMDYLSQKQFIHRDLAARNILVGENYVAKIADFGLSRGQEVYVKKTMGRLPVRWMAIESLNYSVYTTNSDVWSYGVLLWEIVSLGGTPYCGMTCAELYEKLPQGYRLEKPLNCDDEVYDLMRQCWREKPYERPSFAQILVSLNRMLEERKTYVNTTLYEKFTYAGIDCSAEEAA

SMILES: C=CC(=O)Nc1cccc(Nc2nc(Nc3ccc(OCCOC)c(F)c3)ncc2F)c1 [Compound 2]
- inhibition at 3 µM (TIE2/TEK): -5.21%
- remaining activity at 3 µM (TIE2/TEK; [1]): 103%
- remaining activity at 3 µM (TIE2/TEK; [2]): 108%
- inhibition at 3 µM (ERBB4/HER4): 91.3%
- remaining activity at 3 µM (ERBB4/HER4; [1]): 9.15%
- remaining activity at 3 µM (ERBB4/HER4; [2]): 8.32%
- inhibition at 3 µM (ABL2/ARG): 62.8%
- remaining activity at 3 µM (ABL2/ARG; [1]): 37.3%
- remaining activity at 3 µM (ABL2/ARG; [2]): 37.1%
- inhibition at 3 µM (BLK): 93.7%
- remaining activity at 3 µM (BLK; [1]): 6.3%
- remaining activity at 3 µM (BLK; [2]): 6.37%
- inhibition at 3 µM (MSK1/RPS6KA5): 2.7%
- remaining activity at 3 µM (MSK1/RPS6KA5; [1]): 94.9%
- remaining activity at 3 µM (MSK1/RPS6KA5; [2]): 99.7%
- inhibition at 3 µM (FGFR3): 68%
- remaining activity at 3 µM (FGFR3; [1]): 32.1%
- remaining activity at 3 µM (FGFR3; [2]): 31.8%
- inhibition at 3 µM (PKD2/PRKD2): 13.7%
- remaining activity at 3 µM (PKD2/PRKD2; [1]): 86.4%
- remaining activity at 3 µM (PKD2/PRKD2; [2]): 86.2%
- inhibition at 3 µM (PKN2/PRK2): 7.64%
- remaining activity at 3 µM (PKN2/PRK2; [1]): 93.3%
- remaining activity at 3 µM (PKN2/PRK2; [2]): 91.4%
- inhibition at 3 µM (GSK3b): -22.2%
- remaining activity at 3 µM (GSK3b; [1]): 122%
- remaining activity at 3 µM (GSK3b; [2]): 123%
- inhibition at 3 µM (DYRK2): 38.5%
- remaining activity at 3 µM (DYRK2; [1]): 61%
- remaining activity at 3 µM (DYRK2; [2]): 62.1%
- inhibition at 3 µM (CAMK1g): -0.72%
- remaining activity at 3 µM (CAMK1g; [1]): 100%
- remaining activity at 3 µM (CAMK1g; [2]): 101%
